Results on 20 molecules are retold here after patent US20260347364A1, “PYRAZOLO[4,3-F]QUINAZOLINE DERIVATIVES AS MODULATORS OF G12D MUTANT KRAS USEFUL FOR THE TREATMENT OF CANCER” (JAZZ PHARMACEUTICALS IRELAND LTD., priority 2023, published 2026).

One test addresses T1, KRAS G12D (Homo sapiens, UniProt P01116, G12D).
T1 construct: aa1-188 KRAS WT, HRAS WT, NRAS WT, or KRAS containing the G12D
The test can be described thus: HTRF nucleotide exchange assay, KRAS G12D. Particulars: class symbols; for IC50: HTRF nucleotide exchange assay (NEA). It counts as biochemical. On the technique in general: Time-resolved FRET reads energy transfer from a long-lived donor to a nearby acceptor.

The next test concerns the target T2, KRAS WT (Homo sapiens, UniProt P01116).
T2 construct: aa1-188 KRAS WT
Description: HTRF nucleotide exchange assay, KRAS WT. Particulars: class symbols; for IC50: HTRF nucleotide exchange assay (NEA). Type of test: biochemical.

Broadly, the IC50 is the concentration that inhibits the measured activity by half. Read a high IC50 as lower potency.

Bounds are passed on as bounds.

On to `CCc1c(F)ccc2cc(O)cc(-c3cc4nc(OC[C@@]56CCCN5C[C@H](F)C6)nc(N5CC6CCC(C5)N6)c4c4cn(C)nc34)c12` [Example 15], for which the figures for the IC50 at KRAS G12D and against KRAS WT were ≤ 10 nM and 10 to 100 nM, respectively.
On the same counts, the results for `CCc1c(F)ccc2cc(O)cc(-c3cc4nc(OCC5(C)C[C@@H](O)CN5C)nc(N5CCCn6nc(C(=O)N(C)C)cc6C5)c4c4cn(C)nc34)c12` (mixture of isomers) [Example 68, 5-[4-(8-ethyl-7-fluoro-3-hydroxy-1-naphthyl)-2-methyl-7-[rac-(4R)-4-hydroxy-1,2-dimethyl-pyrrolidin-2-yl]methoxy]pyrazolo[4,3-f]quinazolin-9-yl]-N,N-dimethyl-4,6,7,8-tetrahydropyrazolo[1,5-a][1,4]diazepine-2-carboxamide] are ≤ 10 nM and ≤ 10 nM.
On the same counts, the results for `CCc1c(F)ccc2cc(O)cc(-c3c(F)c4nc(OCC5(CN(C)C)CC5)nc(N5CCOC[C@@](C)(O)C5)c4c4cn(C)nc34)c12` [Example 245, (6S)-4-[7-[[1-[(dimethylamino)methyl]cyclopropyl]methoxy]-4-(8-ethyl-7-fluoro-3-hydroxy-1-naphthyl)-5-fluoro-2-methyl-pyrazolo[4,3-f]quinazolin-9-yl]-6-methyl-1,4-oxazepan-6-ol] are ≤ 10 nM and ≤ 10 nM.
On the same counts, the results for `CCc1c(F)ccc2cc(O)cc(-c3c(F)c4nc(OCC5(CN6CCCC6)CC5)nc(N5CCC[C@@](C)(O)C5)c4c4cn(C)nc34)c12` [Example 202, (3R)-1-[4-(8-ethyl-7-fluoro-3-hydroxy-1-naphthyl)-5-fluoro-2-methyl-7-[[1-(pyrrolidin-1-ylmethyl)cyclopropyl]methoxy]pyrazolo[4,3-f]quinazolin-9-yl]-3-methyl-piperidin-3-ol] are ≤ 10 nM and ≤ 10 nM.
With `CCc1c(F)ccc2cc(O)cc(-c3cc4nc(OC[C@@]56CCCN5C[C@H](F)C6)nc(N5CC6CCC(C5)N6CC(C)O)c4c4cn(C)nc34)c12` (stereo partly drawn) [Example 186, 5-ethyl-6-fluoro-4-[7-[[(2R,8S)-2-fluoro-1,2,3,5,6,7-hexahydropyrrolizin-8-yl]methoxy]-9-[8-(2-hydroxypropyl)-3,8-diazabicyclo[3.2.1]octan-3-yl]-2-methyl-pyrazolo[4,3-f]quinazolin-4-yl]naphthalen-2-ol], the IC50 against KRAS G12D and against KRAS WT was 10 to 100 nM in each case.
As for `Cn1cc2c(n1)c(-c1c(O)cccc1F)cc1nc(OC[C@@]34CCCN3C[C@H](F)C4)nc(N3CCCOCC3)c12` [Example 4, 3-fluoro-2-[2-methyl-9-(1,4-oxazepan-4-yl)-7-[[(2R,8S)-2-fluoro-1,2,3,5,6,7-hexahydropyrrolizin-8-yl]methoxy]pyrazolo[4,3-f]quinazolin-4-yl]phenol], the “KRAS^G12D NEA” value on KRAS G12D is given as “D (<49% inhibition at 10 μM)”. Further, on KRAS WT, the “KRAS^WT NEA” value is recorded as “D (<49% inhibition at 10 μM)”.
Turning to `CCc1c(F)ccc2cc(O)cc(-c3cc4nc(OCC56CCCN5CCC6)nc(N5CCCC(C)(O)CC5)c4c4cn(C)nc34)c12` (stereo not shown) [Example 27, 1-[4-(8-ethyl-7-fluoro-3-hydroxy-1-naphthyl)-7-(1,2,3,5,6,7-hexahydropyrrolizin-8-ylmethoxy)-2-methyl-pyrazolo[4,3-f]quinazolin-9-yl]-4-methyl-azepan-4-ol], the IC50 at KRAS G12D and against KRAS WT was 100 to 10000 nM each time.
In the case of `CCc1c(F)ccc2cc(O)cc(-c3c(F)c4nc(OC[C@@]56CCCN5C[C@H](F)C6)nc(N5CCC[C@@H](O)C5)c4c4cn(C)nc34)c12` [Example 178, (3R)-1-[4-(8-ethyl-7-fluoro-3-hydroxy-1-naphthyl)-5-fluoro-2-methyl-7-[[(2R,8S)-2-fluoro-1,2,3,5,6,7-hexahydropyrrolizin-8-yl]methoxy]pyrazolo[4,3-f]quinazolin-9-yl]piperidin-3-ol], the IC50 against KRAS G12D and on KRAS WT was ≤ 10 nM each time.
In the case of `CCc1c(F)ccc2cc(O)cc(-c3c(F)c4nc(OCC56CCCN5CCC6)nc(N5CCC[C@@](C)(O)C5)c4c4cn(C)nc34)c12` [Example 203, (3R)-1-[4-(8-ethyl-7-fluoro-3-hydroxy-1-naphthyl)-5-fluoro-7-(1,2,3,5,6,7-hexahydropyrrolizin-8-ylmethoxy)-2-methyl-pyrazolo[4,3-f]quinazolin-9-yl]-3-methyl-piperidin-3-ol], the IC50 at KRAS G12D and against KRAS WT was ≤ 10 nM in each case.
`CCc1c(F)ccc2cc(O)cc(-c3c(C)c4nc(OCC5(CN(C)C)CC5)nc(N5CCC[C@@](C)(O)C5)c4c4cn(C)nc34)c12` [Example 204, (3R)-1-[7-[[1-[(dimethylamino)methyl]cyclopropyl]methoxy]-4-(8-ethyl-7-fluoro-3-hydroxy-1-naphthyl)-2,5-dimethyl-pyrazolo[4,3-f]quinazolin-9-yl]-3-methyl-piperidin-3-ol]: the IC50 against KRAS G12D and against KRAS WT was ≤ 10 nM each time.
Consider `CCc1c(F)ccc2cc(O)cc(-c3cc4nc(OC[C@@]56CCCN5C[C@H](F)C6)nc(N5CCCn6nc(C(=O)N7CCCC7)cc6C5)c4c4cn(C)nc34)c12` [Example 23, [5-[4-(8-ethyl-7-fluoro-3-hydroxy-1-naphthyl)-2-methyl-7-[[(2R,8S)-2-fluoro-1,2,3,5,6,7-hexahydropyrrolizin-8-yl]methoxy]pyrazolo-[4,3-f]quinazolin-9-yl]4,6,7,8-tetrahydropyrazolo[1,5-a][1,4]diazepin-2-yl]-pyrrolidin-1-yl-methanone], for which the IC50 against KRAS G12D and on KRAS WT was ≤ 10 nM in each case.
As for `CCc1c(F)ccc2cc(O)cc(-c3c(F)c4nc(OC[C@@]5(CN(C)C)CC5(F)F)nc(N5CCOCC(C)(O)C5)c4c4cn(C)nc34)c12` (stereo partly drawn) [Example 236, 4-[4-(8-ethyl-7-fluoro-3-hydroxy-1-naphthyl)-5-fluoro-2-methyl-7-[[(1S)-1-[(dimethylamino)methyl]-2,2-difluoro-cyclopropyl]methoxy]pyrazolo[4,3-f]quinazolin-9-yl]-6-methyl-1,4-oxazepan-6-ol], the concentration for half-maximal inhibition (IC50) at KRAS G12D and at KRAS WT was ≤ 10 nM each time.
`CCc1c(F)ccc2cc(O)cc(-c3cc4nc(OC[C@@]56CCCN5C[C@H](F)C6)nc(N5CCCn6nc(C#N)cc6C5)c4c4cn(C)nc34)c12` [Example 73, 5-[4-(8-ethyl-7-fluoro-3-hydroxy-1-naphthyl)-7-[[(2R,8S)-2-fluoro-1,2,3,5,6,7-hexahydropyrrolizin-8-yl]methoxy]-2-methyl-pyrazolo[4,3-f]quinazolin-9-yl]-4,6,7,8-tetrahydropyrazolo[1,5-a][1,4]diazepine-2-carbonitrile]: the values for the IC50 against KRAS G12D and on KRAS WT were ≤ 10 nM and 10 to 100 nM, respectively.
As to `CCc1c(F)ccc2cc(O)cc(-c3c(F)c4nc(OC[C@@]56CCCN5C[C@H](F)C6)nc(N5CC6CCC(C5)N6)c4c4cn(C)nc34)c12` [Example 99, 4-[9-(3,8-diazabicyclo[3.2.1]octan-3-yl)-5-fluoro-2-methyl-7-[[(2R,8S)-2-fluoro-1,2,3,5,6,7-hexahydropyrrolizin-8-yl]methoxy]pyrazolo[4,3-f]quinazolin-4-yl]-5-ethyl-6-fluoro-naphthalen-2-ol], the IC50 on KRAS G12D and against KRAS WT was ≤ 10 nM each time.
Regarding `CCc1c(F)ccc2cc(O)cc(-c3c(F)c4nc(OCC5(CF)COC5)nc(N5CC6CCC(C5)N6)c4c4cn(C)nc34)c12` [Example 167, 4-[9-(3,8-diazabicyclo[3.2.1]octan-3-yl)-5-fluoro-7-[[3-(fluoromethyl)oxetan-3-yl]methoxy]-2-methyl-pyrazolo[4,3-f]quinazolin-4-yl]-5-ethyl-6-fluoro-naphthalen-2-ol], the IC50 is ≤ 10 nM against KRAS G12D and 100 to 10000 nM at KRAS WT.
`CCc1c(F)ccc2cc(O)cc(-c3c(C)c4nc(OC[C@@]56CCCN5C[C@H](F)C6)nc(N5CC6CCC(C5)N6)c4c4cn(C)nc34)c12` [Example 96, tert-butyl 3-[4-bromo-7-[[(2R,8S)-2-fluoro-1,2,3,5,6,7-hexahydropyrrolizin-8-yl]methoxy]-2,5-dimethyl-pyrazolo[4,3-f]quinazolin-9-yl]-3,8-diazabicyclo[3.2.1]octane-8-carboxylate]: the IC50 on KRAS G12D and on KRAS WT was ≤ 10 nM each time.
Take `Cn1cc2c(n1)c(-c1cc(O)ccc1OC(F)(F)F)cc1nc(OC[C@@]34CCCN3C[C@H](F)C4)nc(N3CCCOCC3)c12` [Example 38, 3-[2-methyl-9-(1,4-oxazepan-4-yl)-7-[[(2R,8S)-2-fluoro-1,2,3,5,6,7-hexahydropyrrolizin-8-yl]methoxy]pyrazolo[4,3-f]quinazolin-4-yl]-4-(trifluoromethoxy)phenol]: the IC50 on KRAS G12D and against KRAS WT was 100 to 10000 nM each time.
On to `CCc1c(F)ccc2cc(O)cc(-c3c(F)c4nc(OC[C@@]56CCCN5C[C@H](F)C6)nc(N5CCCC(C#N)C5)c4c4cn(C)nc34)c12` (stereo partly drawn) [Example 176, 1-[4-(8-ethyl-7-fluoro-3-hydroxy-1-naphthyl)-5-fluoro-2-methyl-7-[[(2R,8S)-2-fluoro-1,2,3,5,6,7-hexahydropyrrolizin-8-yl]methoxy]pyrazolo[4,3-f]quinazolin-9-yl]piperidine-3-carbonitrile], for which the IC50 at KRAS G12D and at KRAS WT was ≤ 10 nM throughout.
On to `CCc1c(F)ccc2cc(O)cc(-c3c(C)c4nc(OC[C@@]56CCCN5C[C@H](F)C6)nc(N5CCCn6nc(C(=O)N(C)C)c(F)c6C5)c4c4cn(C)nc34)c12` [Example 180, 5-[4-(8-ethyl-7-fluoro-3-hydroxy-1-naphthyl)-2,5-dimethyl-7-[[(2R,8S)-2-fluoro-1,2,3,5,6,7-hexahydropyrrolizin-8-yl]methoxy]pyrazolo[4,3-f]quinazolin-9-yl]-3-fluoro-N,N-dimethyl-4,6,7,8-tetrahydropyrazolo[1,5-a][1,4]diazepine-2-carboxamide], for which the IC50 against KRAS G12D and at KRAS WT was ≤ 10 nM in each case.
Turning to `CCc1c(F)ccc2cc(O)cc(-c3cc4nc(OC[C@@]56CCCN5C[C@H](F)C6)nc(N5CCCC6(CCO6)C5)c4c4cn(C)nc34)c12` (stereo partly drawn) [Example 125, 5-ethyl-6-fluoro-4-[2-methyl-9-(1-oxa-8-azaspiro[3.5]nonan-8-yl)-7-[[(2R,8S)-2-fluoro-1,2,3,5,6,7-hexahydropyrrolizin-8-yl]methoxy]pyrazolo[4,3-f]quinazolin-4-yl]naphthalen-2-ol], the IC50 against KRAS G12D and against KRAS WT was 10 to 100 nM each time.
